According to patent US12662484B2, “Substituted piperidines as bruton's tyrosine kinase inhibitors” (Shenzhen TargetRx, Inc., priority 2016, dated 2026):
pIC50: −log10 of the molar value.

Columns and labels:
BTK C481S = biological target: T1, BTK C481S (Homo sapiens, UniProt Q06187, C481S); experiment: BTK C481S kinase inhibition test (HTRF); assay type: biochemical
T1 construct: purchased Carna 08-547
Method: (§1) Kinase Assay: Stock solution of the test compounds were prepared. The final concentration of DMSO in the kinase detection system was not exceed 1%. All of the procedures were carried out on ice, and the total volume of the reaction is 10 μL. Compound (4 μL), substrate and ATP (4 μL), and kinase (2 μL) were added to the wells of a 384-well plate in sequence, shaked for 30 sec, and reacted at room temperature for a proper time. Then, the resection was stopped by adding the detection reagents. The reaction mixture was reacted at room temperature for 1 hr, and detected with Microplate Reader.

ITK = biological target: T2, ITK (Homo sapiens, UniProt Q08881); experiment: ITK kinase inhibition test (HTRF); assay type: biochemical
T2 construct: purchased Carna 08-181
T2 sequence (Q08881 1-620): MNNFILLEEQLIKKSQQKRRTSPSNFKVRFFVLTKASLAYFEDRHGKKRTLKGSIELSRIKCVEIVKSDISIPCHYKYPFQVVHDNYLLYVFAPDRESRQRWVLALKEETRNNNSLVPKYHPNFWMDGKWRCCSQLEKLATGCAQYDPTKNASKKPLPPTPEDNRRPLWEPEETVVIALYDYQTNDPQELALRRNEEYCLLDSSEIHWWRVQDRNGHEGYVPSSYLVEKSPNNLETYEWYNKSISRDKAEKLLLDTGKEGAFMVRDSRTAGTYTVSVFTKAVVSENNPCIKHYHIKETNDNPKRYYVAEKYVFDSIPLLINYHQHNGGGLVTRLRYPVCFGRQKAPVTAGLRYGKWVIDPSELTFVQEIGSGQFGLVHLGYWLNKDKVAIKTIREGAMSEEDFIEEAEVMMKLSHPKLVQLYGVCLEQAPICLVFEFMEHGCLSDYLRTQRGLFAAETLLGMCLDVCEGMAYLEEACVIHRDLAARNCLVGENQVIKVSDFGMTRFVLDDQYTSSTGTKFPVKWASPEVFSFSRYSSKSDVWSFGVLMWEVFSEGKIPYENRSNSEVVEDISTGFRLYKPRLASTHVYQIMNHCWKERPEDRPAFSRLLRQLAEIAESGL
Method: (4) BTK C481S and ITK Kinase Inhibition Test
Reagents and materials: BTK C481S (Carna, catalog number: 08-547), ITK (Carna, catalog number: 08-181). […].
as §1, with “Reader. […].” for “Reader.”

[1] = biological target: T3, Phospho-BTK (Y223) in NIH/3T3 BTK WT cells (Homo sapiens, UniProt Q06187); experiment: Phospho-BTK (Y223) assay, NIH/3T3 BTK WT cells; assay type: cell-based; settings: phospho-BTK Y223, NIH/3T3 BTK WT cells; read-out: NIH/3T3 BTK-WT pBTK IC50
T3 construct: expressed in transfected cells; host or cells: NIH/3T3
Method: (§2) (5) Phospho-BTK (Y223) Assay The Adherent Cells Protocol: Day 1: • 1. […] The plate was incubated overnight at 37° C., 5% CO2. Day 2: • 1. 3-fold compound dilution was prepared, and dispensed 50 μL into 100 μL cell culture. 0.5% DMSO was used as positive control of the cell growth. • 2. The plate was incubated at 37° C., 5% CO2 for 0.5 h. • 3. 50 μL of 1 mM Na3VO4 was added, and incubated at 37° C., 5% CO2 for 2 h. • 4. During the incubation, the following reagents were prepared: 1× supplemented lysis buffer: 3 vol ddH2O+1 vol 4× Lysis buffer+100× Blocking reagent. p-BTK (Y223) cryptate-antibody and p-BTK (Y223) d2-antibody working solution: 1 volume of the stock solution of each antibody frozen aliquot (stored at)−20° was added into 19 volumes of the detection buffer (stored at) 4°. • 5. At the end of the incubation, the plate was flicked to remove the medium, then added 50 μL of 1× supplemented lysis buffer, and incubated at RT for 30 min, with 500 rpm shaking. • 6. The lysate was homogenized by pipetting up and down, and transferred 16 μL to a 384-well microplate. 1× supplemented lysis buffer was used as blank control. • 7. 4 μL of premixed antibody working solutions (cryptate Ab:d2 Ab=1:1) was added. The plate was covered with a plate sealer. • 8. Incubated at RT overnight. […] Data Analysis:
(§3) The IC50 value was calculated with GraphPad Prism 7.0.
(§4) The IC50 of the compounds for phosphorylating BTK Y223 was fit using the following formula.

[2] = biological target: T4, Phospho-BTK (Y223) in NIH/3T3 BTK C481S cells (Homo sapiens, UniProt Q06187, C481S); experiment: Phospho-BTK (Y223) assay, NIH/3T3 BTK C481S cells; assay type: cell-based; settings: phospho-BTK Y223, NIH/3T3 BTK C481S cells; read-out: NIH/3T3 BTK-C481S pBTK IC50
T4 construct: expressed in transfected cells; host or cells: NIH/3T3
Method: as §2, §3, §4

[3] = Pharmacokinetics and brain distribution study after a single oral administration
From the text: (6) Pharmacokinetics and Brain Distribution Study in Male Sprague Dawley Rats Following a Single Oral Administration
This study is designed to evaluate the pharmacokinetics and brain distribution of compounds disclosed herein in male Sprague Dawley Rat following a single Oral administration.
The animals were fasted overnight from 18:00 p.m. before the dosing day, and fed at 4 hr post-dose. All animals were free access to water during the study. Blood, CSF and brain were collected after each occasion of dosing at 0.5, 1, 2, and 8 hr. Blood samples (˜0.25 mL per time-point) were collected via jugular venous sinus puncture and placed in K2EDTA-containing tubes. Immediately following blood collection, the samples were inverted several times and held on wet ice before centrifugation. All the samples were centrifuged within 30 min of collection under refrigeration (set to maintain 4° C. for 5 min at 6000 rpm) to obtain plasma. The CSF samples (about 100 μL) were collected into tubes via puncture of the cisterna magna. The brain samples were rinsed with saline, drained with filter paper and removed with blood vessels, then weighted and recorded. 5-fold of the homogenate solvent (30% MeOH/70% 10 mM PBS) were used for the homogenization. All the samples were stored at −80° C., or lower until being analyzed with LC-MS/MS. Concentrations of the compounds disclosed herein in each matrix were used for PK analysis by non-compartmental method using WinNonlin.

BTK = biological target: T5, BTK (Homo sapiens, UniProt Q06187); experiment: Kinase inhibition test (HTRF), BTK; assay type: biochemical; settings: 1 nM BTK, 20 μM ATP
T5 construct: purchased Invitrogen PR5442A
Method: (1) Kinase Inhibition Test
• 1) Compound dilution: The test compounds were dissolved in DMSO to make a 10 mM stock solution.

[4] = male, Sprague-Dawley, rat, in vivo
in vivo = settings: male, Sprague-Dawley, rat
[5] = male SD rat, 10 mg/kg oral, CSF
[6] = male SD rat, 10 mg/kg oral, brain
[7] = male SD rat, 10 mg/kg oral, plasma
[8] = male, Sprague Dawley, rat, CSF, po, 10 mg/kg
[9] = male, Sprague Dawley, rat, brain, po, 10 mg/kg
[10] = male, Sprague Dawley, rat, plasma, po, 10 mg/kg

T4 sequence (Q06187 whole entry C481S): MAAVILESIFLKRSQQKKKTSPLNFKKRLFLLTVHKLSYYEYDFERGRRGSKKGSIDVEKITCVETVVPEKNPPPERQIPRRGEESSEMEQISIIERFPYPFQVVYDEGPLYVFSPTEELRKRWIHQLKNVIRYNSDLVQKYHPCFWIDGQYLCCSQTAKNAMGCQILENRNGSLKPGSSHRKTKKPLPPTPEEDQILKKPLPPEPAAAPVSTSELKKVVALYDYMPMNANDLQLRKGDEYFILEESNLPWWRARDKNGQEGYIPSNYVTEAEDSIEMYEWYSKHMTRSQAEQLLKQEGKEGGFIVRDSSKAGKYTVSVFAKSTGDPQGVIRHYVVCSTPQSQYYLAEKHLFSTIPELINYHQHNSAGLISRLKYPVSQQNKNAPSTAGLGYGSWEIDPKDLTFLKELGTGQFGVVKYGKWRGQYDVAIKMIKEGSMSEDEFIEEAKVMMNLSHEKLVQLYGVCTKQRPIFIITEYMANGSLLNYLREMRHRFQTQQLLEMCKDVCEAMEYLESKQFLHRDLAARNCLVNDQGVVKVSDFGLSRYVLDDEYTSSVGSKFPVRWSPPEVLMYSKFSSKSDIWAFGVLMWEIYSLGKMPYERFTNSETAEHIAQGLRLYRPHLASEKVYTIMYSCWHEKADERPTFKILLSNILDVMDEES
T1 sequence (Q06187 whole entry C481S): as above
T3 sequence (Q06187 whole entry): as the sequence (Q06187 whole entry C481S) above, with S481C counted along it
T5 sequence (Q06187 whole entry): as the sequence (Q06187 whole entry C481S) above, with S481C counted along it

SMILES | pIC50 (BTK C481S) | pIC50 (ITK) | pIC50 [1] | pIC50 [2] | Cmax, CSF [3, 5] [ng/mL] | Cmax, Brain [3, 6] [ng/mL] | AUC(0-t) [3, 8] [ng·h/mL] | AUC(0-inf) [3, 10] [ng·h/mL] | AUC(0-t) [3, 10] [ng·h/mL] | MRT inf [3, 10] [min] | also measured
C=CC(=O)N1CCC[C@@H](c2cn(-c3ccc(Oc4ccccc4)cc3)c3c(N)ncnc23)C1 [Example 3, (S)-1-(3-(4-amino-5-(4-phenoxyphenyl)-5H-pyrrolo[3,2-d]pyrimidin-7-yl)piperidin-1-yl)prop-2-en-1-one] | 7.97 | 6.86 | 8.18 | 6.30 |  |  |  |  |  |  | 
C=CC(=O)N1CCC[C@@H](c2nn(-c3ccc(Oc4ccccc4)cc3)c3c(N)ncnc23)C1 [Example 5, (R)-1-(3-(7-amino-1-(4-phenoxyphenyl)-1H-pyrazolo[4,3-d]pyrimidin-3-yl)piperidin-1-yl)prop-2-en-1-one] | 8.22 | 6.21 | 8.26 | 6.18 |  |  |  |  |  |  | 
C=CC(=O)N1CCC[C@H](c2nn(-c3ccc(Oc4ccccc4)cc3)c3c(N)ncnc23)C1 [Example 6, (S)-1-(3-(7-amino-1-(4-phenoxyphenyl)-1H-pyrazolo[4,3-d]pyrimidin-3-yl)piperidin-1-yl)prop-2-en-1-one] | 7.79 | 5.36 | 7.73 | < 6.00 |  |  |  |  |  |  | 
C=CC(=O)N1CCC[C@@H](n2nc(-c3ccc(Oc4ccccc4)cc3)c3c(N)ncnc32)C1 [Ibrutinib, reference compound] |  |  |  |  | 0.35 | 25.4 | 0.0875 | 666 | 626 | 145 | 

Second part, led by results:

pIC50 (BTK C481S) | pIC50 (ITK) | pIC50 [1] | pIC50 [2] | SMILES | Cmax, CSF [3, 5] [ng/mL] | Cmax, Brain [3, 6] [ng/mL] | AUC(0-t) [3, 8] [ng·h/mL] | AUC(0-inf) [3, 10] [ng·h/mL] | AUC(0-t) [3, 10] [ng·h/mL] | MRT inf [3, 10] [min] | also measured
8.61 | 7.66 | 8.13 | 6.79 | C=CC(=O)N1CCC[C@@H](c2nc(-c3ccc(Oc4ccccc4)cc3)c3c(N)nccn23)C1 [Example 7, (R)-1-(3-(8-amino-1-(4-phenoxyphenyl)imidazo[1,5-a]pyrazin-3-yl)piperidin-1-yl)prop-2-en-1-one] | 0.478 | 18 | 0.119 | 285 | 275 | 122 | Cl_pred, Plasma [3, 7]: 586; Vz_pred, Plasma [3, 7]: 85.5 L/kg; Tmax [3, 8]: 30 min; AUC(0-t) [3, 9]: 16.4 ng·h/mL; Tmax [3, 9]: 30 min; Cmax [3, 10]: 117 ng/mL; Tmax [3, 10]: 30 min; half-life [3, 10]: 101 min
8.41 | 6.76 | 8.31 | 6.54 | C=CC(=O)N1CCC[C@@H](c2nc(-c3ccc(Oc4ccccc4)cc3)c3c(N)ncnn23)C1 [Example 8, (R)-1-(3-(4-amino-5-(4-phenoxyphenyl)imidazo[5,1-f][1,2,4]triazin-7-yl)piperidin-1-yl)prop-2-en-1-one] |  |  |  |  |  |  | pIC50 (BTK): > 9.00; F [4]: 16.0%; AUC(0-t) (in vivo; iv, 0.5 mg/kg): 255 ng·h/mL; Cmax (in vivo; iv, 0.5 mg/kg): 1120 ng/mL; AUC(0-t) (in vivo; po, 10 mg/kg): 820 ng·h/mL; Cmax (in vivo; po, 10 mg/kg): 348 ng/mL; Tmax (in vivo; po, 10 mg/kg): 20 min
